From US7595333B2, “Agent for improving acidosis” (priority 1999, dated 2009)
Counter-ions that a name gives are not always drawn.

Columns and labels:
[1] = tested on: Wistar fatty rats; test: Effect on ketosis caused by a biguanide (metformin) in Wistar fatty rats (total ketone bodies in plasma); assay type: in vivo, rat; details: for concentration of total ketone bodies, higher as compared with Group A (without metformin and pioglitazone hydrochloride) / concentration of total ketone bodies in plasma: metformin 300 mg/kg/day; for concentration of total ketone bodies, higher as compared with Group A (without metformin and pioglitazone hydrochloride): difference of means; for concentration of total ketone bodies in plasma: Wistar fatty rats, pioglitazone hydrochloride 1 mg/kg/day, mean ± SD, n=6
Description: 3-Hydroxybutyric acid (3-HB) in samples is specifically oxidized by 3-hydroxybutyric acid dehydrogenase (3-HBDH) in the presence of an oxidized form of β-thionicotinamide adenine dinucleotide (thio-NAD) to produce acetoacetic acid (AcAc) and a reduced form of β-thionicotinamide adenine dinucleotide (thio-NADH). […] The concentration of total ketone bodies which is the sum of 3-HB and AcAc in samples can be calculated by determining a production speed of thio-NADH thus obtained.
Effects of an insulin sensitizer (pioglitazone hydrochloride) on ketosis caused by a biguanide (metformin) in Wistar fatty rats, NIDDM models, were studied.
First, Wistar fatty rats (31 week-old, male) were divided into three groups, namely Groups A, B and C, each consisting of 6 rats. […] After administration, blood was collected from the tail vein of the Wistar fatty rats, and total ketone bodies in the plasma were determined in the same manner as in Experimental Example 1.
In the table, W. fatty. Met and Pio mean Wistar fatty rat, metformin and pioglitazone hydrochloride, respectively. Figures in the table represent means ± standard deviation (number of subjects=6).
The concentration of total ketone bodies in plasma of Wistar fatty rats was determined in the same manner as in Experimental Example 2 except that the administration period was changed from 14 days to 7 days.

[2] = tested on: Wistar fatty rats; test: Effect on diabetic ketosis in Wistar fatty rats (total ketone bodies in plasma); assay type: in vivo, rat; details: for concentration of total ketone bodies in plasma: Wistar fatty rats (31 week-old, male), pioglitazone hydrochloride 1 mg/kg body weight/day orally for 14 days, mean ± SD, n=6, control without Pio 170.23 ± 22.33 μM
Description: For instance, diabetic ketosis is observed in a Wistar fatty rat which is an animal model of non-insulin dependent (type 2) diabetes mellitus. Therefore, a ketosis improving action of a test compound can be evaluated by comparing concentration of total ketone bodies in plasma between Wistar fatty rat groups with administration of a test compound (Experimental group) and Wistar fatty rat groups without administration of a test compound (Control group). […] 3-Hydroxybutyric acid (3-HB) in samples is specifically oxidized by 3-hydroxybutyric acid dehydrogenase (3-HBDH) in the presence of an oxidized form of β-thionicotinamide adenine dinucleotide (thio-NAD) to produce acetoacetic acid (AcAc) and a reduced form of β-thionicotinamide adenine dinucleotide (thio-NADH). […] Effects of an insulin sensitizer (pioglitazone hydrochloride) on diabetic ketosis in Wistar fatty rats, animal models of non-insulin dependent diabetes mellitus (NIDDM), were studied. First, Wistar fatty rats (31 week-old, male) were divided into two groups each consisting of 6 rats. […] After administration, blood was collected from the tail vein of the Wistar fatty rats, and total ketone bodies in the plasma were enzymatically determined by using AutoWako total ketone bodies (Trade name)(Wako Pure Chemical Industries, Ltd., Japan) and Hitachi 7070 Autoanalyzing machine. Wistar lean rats (6 rats), animal models of non diabetes mellitus (normal), were orally administered with a 0.5 (w/v) % aqueous methylcellulose solution for 14 days. Then, total ketone bodies in the plasma were determined in the same manner as above. In the table, W, lean, W. fatty and Pio mean Wistar lean rat, Wistar fatty rat and pioglitazone hydrochloride, respectively. Figures in the table represent means ± standard deviation (number of subjects=6).

Row | Structure (SMILES) | concentration of total ketone bodies, higher as compared with Group A (without metformin and pioglitazone hydrochloride) ([1]; 7 days) [µM] | concentration of total ketone bodies, higher as compared with Group A (without metformin and pioglitazone hydrochloride) ([1]; 14 days) [µM] | concentration of total ketone bodies in plasma ([1]; 7 days orally, Group A control 160.37 ± 14.00 μM) [µM] | concentration of total ketone bodies in plasma ([1]; 7 days orally, Group A control 160.37 ± 14.00 μM, listed as Met) [µM] | concentration of total ketone bodies in plasma ([1]; 14 days orally, Group A control 170.23 ± 22.33 μM) [µM] | concentration of total ketone bodies in plasma ([1]; 14 days orally, Group A control 170.23 ± 22.33 μM, listed as Met) [µM] | concentration of total ketone bodies in plasma [2] [µM] | concentration of total ketone bodies in plasma ([2]; listed as Pio) [µM] | effect on diabetic ketosis (conclusion in words) ([2]; Wistar fatty rats, 1 mg/kg/day orally, 14 days) | concentration of total ketone bodies, lower as compared with the group without pioglitazone hydrochloride ([2]; Wistar fatty rats, 1 mg/kg/day orally, 14 days, difference of means) [µM] | effect on ketosis caused by a biguanide (conclusion in words) ([1]; Experimental Examples 2 and 3 (14 and 7 days))
1 | CN(C)C(=N)N=C(N)N [metformin] | 38.86 | 11.77 | 199.23 ± 55.69 | 199.23 ± 55.69 | 182.00 ± 22.50 | 182.00 ± 22.50 |  |  |  |  | 
2 | CCc1ccc(CCOc2ccc(CC3SC(=O)NC3=O)cc2)nc1 (centres unmarked) [pioglitazone hydrochloride, 5-[4-[2-(5-ethyl-2-pyridyl)ethoxy]benzyl]-2,4-thiazolidinedione] |  |  |  |  |  |  | 125.72 ± 12.49 | 125.72 ± 12.49 | improves diabetic ketosis | 44.51 | improves ketosis caused by a biguanide (metformin)
